According to patent publication US20240174662A1, “SMALL MOLECULE INHIBITORS OF SALT INDUCIBLE KINASES” (Janssen Biotech, Inc., priority 2021, published 2024):

Molecular target: SIK2 (Homo sapiens (Human), UniProt Q9H0K1)
Experiment: SIK2 Enzymatic Assay Version 2 (High ATP)
Format: biochemical
Conditions: 3 mM ATP and 200 μM HDAC5tide final, ADP-Glo Max luminescence
How it was run: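 Luminescent ADP-Glo Max read-out: depletion reagent 2 h, then detection reagent 1 h. Before the reaction, compounds were incubated 30 min with enzyme added at 6 nM (twice final concentration), with all steps at room temperature.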

Chain of SIK2 (Q9H0K1 whole entry, species assumed): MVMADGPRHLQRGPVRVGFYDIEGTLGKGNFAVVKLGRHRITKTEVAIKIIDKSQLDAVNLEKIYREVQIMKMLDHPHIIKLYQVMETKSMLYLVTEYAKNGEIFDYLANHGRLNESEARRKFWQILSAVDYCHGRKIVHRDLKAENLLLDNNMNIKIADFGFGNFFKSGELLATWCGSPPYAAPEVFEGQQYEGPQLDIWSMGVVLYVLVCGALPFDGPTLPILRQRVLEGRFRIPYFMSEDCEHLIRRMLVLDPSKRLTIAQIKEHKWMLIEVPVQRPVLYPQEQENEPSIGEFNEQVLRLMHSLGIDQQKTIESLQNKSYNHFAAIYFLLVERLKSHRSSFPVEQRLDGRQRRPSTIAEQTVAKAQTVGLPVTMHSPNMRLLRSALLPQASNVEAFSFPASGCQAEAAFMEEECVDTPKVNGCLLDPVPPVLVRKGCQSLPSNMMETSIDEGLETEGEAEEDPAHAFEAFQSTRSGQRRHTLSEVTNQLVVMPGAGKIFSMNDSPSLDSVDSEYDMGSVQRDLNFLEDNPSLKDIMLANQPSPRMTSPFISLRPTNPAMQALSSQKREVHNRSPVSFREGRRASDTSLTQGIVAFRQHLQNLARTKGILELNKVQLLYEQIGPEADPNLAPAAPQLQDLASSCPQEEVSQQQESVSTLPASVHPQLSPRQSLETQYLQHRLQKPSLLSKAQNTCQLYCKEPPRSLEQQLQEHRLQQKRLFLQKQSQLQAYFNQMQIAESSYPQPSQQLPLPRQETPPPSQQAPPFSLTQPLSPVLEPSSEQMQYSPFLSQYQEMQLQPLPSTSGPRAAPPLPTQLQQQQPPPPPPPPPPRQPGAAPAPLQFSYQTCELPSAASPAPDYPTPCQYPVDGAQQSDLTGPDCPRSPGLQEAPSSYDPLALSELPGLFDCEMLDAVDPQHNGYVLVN

`Cc1cc(Nc2cc3cc(-c4c(O[C@H]5CCN(C)C5)cnn4C)ccn3n2)nc(C)n1` [Example 267, N-(2,6-dimethylpyrimidin-4-yl)-5-[2-methyl-4-[(3S)-1-methylpyrrolidin-3-yl]oxy-pyrazol-3-yl]pyrazolo[1,5-a]pyridin-2-amine] and `Cc1cc(Nc2cc3cc(-c4c(O[C@H]5CCN(C)C5)cnn4C)ccn3n2)nnc1C` [Example 272, N-(5,6-dimethylpyridazin-3-yl)-5-[2-methyl-4-[(3S)-1-methylpyrrolidin-3-yl]oxy-pyrazol-3-yl]pyrazolo[1,5-a]pyridin-2-amine] are within 1.5-fold of each other in IC50: 0.0298 µM for the first, 0.0435 µM for the second.

`CN1CC[C@H](Oc2cnn(C)c2-c2ccn3nc(Nc4ccn5nccc5n4)cc3c2)C1` [Example 268, N-[5-[2-methyl-4-[(3S)-1-methylpyrrolidin-3-yl]oxy-pyrazol-3-yl]pyrazolo[1,5-a]pyridin-2-yl]pyrazolo[1,5-a]pyrimidin-5-amine] and `CC(C)c1nccc(Nc2cc3cc(-c4c(O[C@H]5CCN(C)C5)cnn4C)ccn3n2)n1` [Example 270, N-(2-isopropylpyrimidin-4-yl)-5-[2-methyl-4-[(3S)-1-methylpyrrolidin-3-yl]oxy-pyrazol-3-yl]pyrazolo[1,5-a]pyridin-2-amine] are within 1.5-fold of each other in IC50: 0.0365 µM for the first, 0.0477 µM for the second.

`CN1CC[C@H](Oc2cnn(C)c2-c2ccn3nc(Nc4cc5c(nn4)CCC5)cc3c2)C1` [Example 269, N-(6,7-dihydro-5H-cyclopenta[c]pyridazin-3-yl)-5-[2-methyl-4-[(3S)-1-methylpyrrolidin-3-yl]oxy-pyrazol-3-yl]pyrazolo[1,5-a]pyridin-2-amine] and `CN1CC[C@H](Oc2cnn(C)c2-c2ccn3nc(Nc4ccc5c(n4)CCOC5)cc3c2)C1` [Example 280, N-[5-[2-methyl-4-[(3S)-1-methylpyrrolidin-3-yl]oxy-pyrazol-3-yl]pyrazolo[1,5-a]pyridin-2-yl]-7,8-dihydro-5H-pyrano[4,3-b]pyridin-2-amine] are within 1.5-fold of each other in IC50: 0.0332 µM for the first, 0.0358 µM for the second.

`CC(C)c1cc(Nc2cc3cc(-c4c(O[C@H]5CCN(C)C5)cnn4C)ccn3n2)ncn1` [Example 271, N-(6-isopropylpyrimidin-4-yl)-5-[2-methyl-4-[(3S)-1-methylpyrrolidin-3-yl]oxy-pyrazol-3-yl]pyrazolo[1,5-a]pyridin-2-amine] and `CN1CC[C@H](Oc2cnn(C)c2-c2ccn3nc(Nc4ccnc(C5CC5)n4)cc3c2)C1` [Example 281, N-(2-cyclopropylpyrimidin-4-yl)-5-[2-methyl-4-[(3S)-1-methylpyrrolidin-3-yl]oxy-pyrazol-3-yl]pyrazolo[1,5-a]pyridin-2-amine] are within 1.5-fold of each other in IC50: 0.0408 µM for the first, 0.0291 µM for the second.

Compared with `Cc1cc(Nc2cc3cc(-c4c(OC[C@H]5CCN5)cnn4C)ccn3n2)nc(C(F)(F)F)n1` [Example 273, 5-[4-[[(2R)-azetidin-2-yl]methoxy]-2-methyl-pyrazol-3-yl]-N-[6-methyl-2-(trifluoromethyl)pyrimidin-4-yl]pyrazolo[1,5-a]pyridin-2-amine], `Cc1cc(Nc2cc3cc(-c4c(OC[C@H]5CCCN5C)cnn4C)ccn3n2)nc(C(F)(F)F)n1` [Example 283, 5-[2-methyl-4-[[(2R)-1-methylpyrrolidin-2-yl]methoxy]pyrazol-3-yl]-N-[6-methyl-2-(trifluoromethyl)pyrimidin-4-yl]pyrazolo[1,5-a]pyridin-2-amine] is 5.3-fold lower in IC50: 0.0181 µM for the first, 0.0034 µM for the second.

Going from `Cc1cc(Nc2cc3cc(-c4c(OC[C@H]5CCN5CCF)cnn4C)ccn3n2)nc(C)n1` [Example 274, N-(2,6-dimethylpyrimidin-4-yl)-5-[4-[[(2R)-1-(2-fluoroethyl)azetidin-2-yl]methoxy]-2-methyl-pyrazol-3-yl]pyrazolo[1,5-a]pyridin-2-amine] to `Cc1cc(Nc2cc3cc(-c4c(OC[C@H]5CCN5C[C@H](C)O)cnn4C)ccn3n2)nc(C)n1` [Example 292, (2S)-1-[(2R)-2-[[5-[2-[(2,6-dimethylpyrimidin-4-yl)amino]pyrazolo[1,5-a]pyridin-5-yl]-1-methyl-pyrazol-4-yl]oxymethyl]azetidin-1-yl]propan-2-ol], the IC50 falls from 0.0009 µM to less than 0.000847 µM. The second is the more potent here.

First: Cc1cc(Nc2cc3cc(-c4c(OC[C@H]5CCN5)cnn4C)ccn3n2)nnc1C [Example 275, 5-[4-[[(2R)-azetidin-2-yl]methoxy]-2-methyl-pyrazol-3-yl]-N-(5,6-dimethylpyridazin-3-yl)pyrazolo[1,5-a]pyridin-2-amine]
Second: Cc1cc(Nc2cc3cc(-c4c(OC[C@H]5CCN5CCF)cnn4C)ccn3n2)nnc1C [Example 276, N-(5,6-dimethylpyridazin-3-yl)-5-[4-[[(2R)-1-(2-fluoroethyl)azetidin-2-yl]methoxy]-2-methyl-pyrazol-3-yl]pyrazolo[1,5-a]pyridin-2-amine]
The IC50 of the first is 36-fold higher: 0.0322 µM for the first, 0.0009 µM for the second. The second is the more potent here.

`Cc1cc(Nc2cc3cc(-c4c(OC[C@H]5CCN5CCF)cnn4C)ccn3n2)ncn1` [Example 277, 5-[4-[[(2R)-1-(2-fluoroethyl)azetidin-2-yl]methoxy]-2-methyl-pyrazol-3-yl]-N-(6-methylpyrimidin-4-yl)pyrazolo[1,5-a]pyridin-2-amine] and `Cc1cnc(Nc2cc3cc(-c4c(OC[C@H]5CCN5CCF)cnn4C)ccn3n2)cn1` [Example 279, 5-[4-[[(2R)-1-(2-fluoroethyl)azetidin-2-yl]methoxy]-2-methyl-pyrazol-3-yl]-N-(5-methylpyrazin-2-yl)pyrazolo[1,5-a]pyridin-2-amine] are within 1.5-fold of each other in IC50: 0.0014 µM for the first, 0.0018 µM for the second.

First: Cc1cncc(Nc2cc3cc(-c4c(OC[C@H]5CCN5CCF)cnn4C)ccn3n2)n1 [Example 278, 5-[4-[[(2R)-1-(2-fluoroethyl)azetidin-2-yl]methoxy]-2-methyl-pyrazol-3-yl]-N-(6-methylpyrazin-2-yl)pyrazolo[1,5-a]pyridin-2-amine]
Second: Cc1cnc(Nc2cc3cc(-c4c(OC[C@H]5CCN5C[C@H](C)O)cnn4C)ccn3n2)cn1 [Example 296, (2S)-1-[(2R)-2-[[1-methyl-5-[2-[(5-methylpyrazin-2-yl)amino]pyrazolo[1,5-a]pyridin-5-yl]pyrazol-4-yl]oxymethyl]azetidin-1-yl]propan-2-ol]
The IC50 of the first is 6.2-fold lower: 0.001 µM for the first, 0.0062 µM for the second.

Going from `Cc1cc(Nc2cc3cc(-c4c(OC[C@H]5CCCN5C)cnn4C)ccn3n2)nc(C)n1` [Example 282, N-(2,6-dimethylpyrimidin-4-yl)-5-[2-methyl-4-[[(2R)-1-methylpyrrolidin-2-yl]methoxy]pyrazol-3-yl]pyrazolo[1,5-a]pyridin-2-amine] to `CCN1CCC[C@@H]1COc1cnn(C)c1-c1ccn2nc(Nc3cc(C)nc(C)n3)cc2c1` [Example 289, N-(2,6-dimethylpyrimidin-4-yl)-5-[4-[[(2R)-1-ethylpyrrolidin-2-yl]methoxy]-2-methyl-pyrazol-3-yl]pyrazolo[1,5-a]pyridin-2-amine], the IC50 falls from 0.0113 µM to 0.0014 µM (8.1-fold). The second is the more potent here.

First: CN1CCC[C@@H]1COc1cnn(C)c1-c1ccn2nc(Nc3ccc(C4CC4)nn3)cc2c1 [Example 284, N-(6-cyclopropylpyridazin-3-yl)-5-[2-methyl-4-[[(2R)-1-methylpyrrolidin-2-yl]methoxy]pyrazol-3-yl]pyrazolo[1,5-a]pyridin-2-amine]
Second: Cc1ccc(Nc2cc3cc(-c4c(OC[C@H]5CCCN5C)cnn4C)ccn3n2)nn1 [Example 287, 5-[2-methyl-4-[[(2R)-1-methylpyrrolidin-2-yl]methoxy]pyrazol-3-yl]-N-(6-methylpyridazin-3-yl)pyrazolo[1,5-a]pyridin-2-amine]
The IC50 of the first is 2.3-fold lower: 0.0165 µM for the first, 0.0372 µM for the second.

`Cc1cc(Nc2cc3cc(-c4c(OC[C@H]5CCCN5C)cnn4C)ccn3n2)ncn1` [Example 285, 5-[2-methyl-4-[[(2R)-1-methylpyrrolidin-2-yl]methoxy]pyrazol-3-yl]-N-(6-methylpyrimidin-4-yl)pyrazolo[1,5-a]pyridin-2-amine] and `Cc1nccc(Nc2cc3cc(-c4c(OC[C@H]5CCCN5C)cnn4C)ccn3n2)n1` [Example 286, 5-[2-methyl-4-[[(2R)-1-methylpyrrolidin-2-yl]methoxy]pyrazol-3-yl]-N-(2-methylpyrimidin-4-yl)pyrazolo[1,5-a]pyridin-2-amine] are within 1.5-fold of each other in IC50: 0.0185 µM for the first, 0.0235 µM for the second.

First: Cc1cc(Nc2cc3cc(-c4c(OCC56CC(CN5)C6)cnn4C)ccn3n2)nc(C)n1 [Example 288, 5-[4-(3-azabicyclo[2.1.1]hexan-4-ylmethoxy)-2-methyl-pyrazol-3-yl]-N-(2,6-dimethylpyrimidin-4-yl)pyrazolo[1,5-a]pyridin-2-amine]
Second: [2H]C([2H])([2H])N1CC[C@@H]1COc1cnn(C)c1-c1ccn2nc(Nc3cc(C)nc(C)n3)cc2c1 [Example 290, N-(2,6-dimethylpyrimidin-4-yl)-5-[2-methyl-4-[[(2R)-1-(trideuteriomethyl)azetidin-2-yl]methoxy]pyrazol-3-yl]pyrazolo[1,5-a]pyridin-2-amine]
The IC50 of the first is higher: 0.0168 µM for the first, less than 0.000847 µM for the second.

First: Cn1ncc(OC[C@H]2CCN2)c1-c1ccn2nc(Nc3cncc(-n4cccn4)n3)cc2c1 [Example 291, 5-[4-[[(2R)-azetidin-2-yl]methoxy]-2-methyl-pyrazol-3-yl]-N-(6-pyrazol-1-ylpyrazin-2-yl)pyrazolo[1,5-a]pyridin-2-amine]
Second: Cc1ncc(Nc2cc3cc(-c4c(OC[C@H]5CCN5C[C@H](C)O)cnn4C)ccn3n2)nc1C [Example 297, (2S)-1-[(2R)-2-[[5-[2-[(5,6-dimethylpyrazin-2-yl)amino]pyrazolo[1,5-a]pyridin-5-yl]-1-methyl-pyrazol-4-yl]oxymethyl]azetidin-1-yl]propan-2-ol]
The IC50 of the first is higher: 0.0312 µM for the first, less than 0.000847 µM for the second. The second is the more potent here.

Going from `[2H]C([2H])([2H])C([2H])([2H])N1CCC[C@@H]1COc1cnn(C)c1-c1ccn2nc(Nc3cc(C)nc(C)n3)cc2c1` [Example 293, N-(2,6-dimethylpyrimidin-4-yl)-5-[2-methyl-4-[[(2R)-1-(1,1,2,2,2-pentadeuterioethyl)pyrrolidin-2-yl]methoxy]pyrazol-3-yl]pyrazolo[1,5-a]pyridin-2-amine] to `[2H]C([2H])([2H])C([2H])([2H])N1CC[C@@H]1COc1cnn(C)c1-c1ccn2nc(Nc3cc(C)nc(C)n3)cc2c1` [Example 294, N-(2,6-dimethylpyrimidin-4-yl)-5-[2-methyl-4-[[(2R)-1-(1,1,2,2,2-pentadeuterioethyl)azetidin-2-yl]methoxy]pyrazol-3-yl]pyrazolo[1,5-a]pyridin-2-amine], the IC50 rises from less than 0.000847 µM to 0.0026 µM. The first is the more potent here.
